Among the data in patent publication US5922697A, “Compounds, compositions and methods for inhibiting the binding of proteins containing an SH2 domain to cognate phosphorylated proteins” (Warner-Lambert Company, priority 1998, dated 1999) are IC50 values, retold here.

A word on the IC50: it is the concentration at which inhibition is half-maximal.

Read-outs that look alike come from different tables or passages of the source.

For test [1], the target named is T1, Abl SH2 (Homo sapiens, UniProt P00519).
T1 construct: glutathione-S-transferase(GST)-Abl SH2 fusion protein
T1 sequence (P00519 127-217 limits assumed): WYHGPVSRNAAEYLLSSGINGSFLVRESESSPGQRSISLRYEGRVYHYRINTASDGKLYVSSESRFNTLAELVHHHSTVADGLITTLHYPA
Put plainly: Inhibition of 125I-phosphopeptide binding to immobilized Abl SH2. The protocol:
The binding affinities of compounds of the present invention to Abl SH2 was determined using a competitive radiolabeled phosphopeptide displacement assay. […] Binding was performed at room temperature for 20 minutes while continuously inverting the plate.

The target in test [2] is T2, Src SH2 (Homo sapiens, UniProt P12931).
T2 construct: glutathione-S-transferase(GST)-Src SH2 fusion protein
Briefly: Inhibition of 125I-phosphopeptide binding to immobilized Src SH2. As to conditions: competitive 125I-phosphopeptide displacement, GST-Src SH2 fusion protein, pH 7.5, room temperature, 20 minutes. The protocol: The binding affinities of compounds of the present invention to Src SH2 was determined using a competitive radiolabeled phosphopeptide displacement assay.
Binding was performed at room temperature for 20 minutes while continuously inverting the plate. […] Results are expressed as IC50 values in Table 1 below.

The mark [3] stands for this setting: IC50, Abl SH2 Binding, competitive 125I-phosphopeptide displacement, GST-Abl SH2 fusion protein, pH 7.5, room temperature, 20 minutes.
Where [4] appears, read: competitive 125I-phosphopeptide displacement, GST-Abl SH2 fusion protein, pH 7.5, room temperature, 20 minutes; read-out: IC50, Abl SH2 Binding.
Setting [5] is: read-out: IC50, SRC SH2 Binding.

T2 sequence (P12931 151-248 limits assumed): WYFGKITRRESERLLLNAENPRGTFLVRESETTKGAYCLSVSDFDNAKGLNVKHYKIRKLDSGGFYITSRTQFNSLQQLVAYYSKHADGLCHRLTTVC

For the compound `CC(=O)N[C@@H](Cc1ccc(OP(=O)(O)O)cc1)C(=O)NC(C)c1ccc(OCC2CCCCC2)c(CC(N)=O)c1` (mixture of isomers) [Example 65, (S)-Phosphoric acid mono-(4-{2-acetylamino-2-[(RS)-1-(3-carbamoylmethyl-4-cyclohexylmethoxy-phenyl)-ethylcarbamoyl]-ethyl}-phenyl) ester], the half-maximal inhibitory concentration (IC50) came to 24 µM in test [1] (setting [3]) and 9.2 µM in test [2] (IC50, SRC SH2 Binding).

Turning to `CC(=O)N[C@@H](Cc1ccc(OP(=O)(O)O)cc1)C(=O)NCc1ccc(OC(C)CC2CCCCC2)c(C(N)=O)c1` (mixture of isomers) [Example 66, Phosphoric acid mono-(4-{(S)-2-acetylamino-2-[3-carbamoyl-4-(2-cyclohexyl-(RS)-1-methyl-ethoxy)-benzylcarbamoyl]-ethyl}-phenyl) ester], the IC50 worked out at 11 µM in test [1] (setting [3]) and 3.8 µM in test [2] (IC50, SRC SH2 Binding).

In the case of `CC(=O)N[C@@H](Cc1ccc(OP(=O)(O)O)cc1)C(=O)NC(Cc1ccccc1)c1ccc(OCC2CCCCC2)c(C(N)=O)c1` (mixture of isomers) [Example 67, Phosphoric acid mono-(4{(S)-2-acetylamino-2-[(RS)-1-(3-carbamoyl-4-cyclohexylmethoxy-phenyl)-2-phenyl-ethylcarbamoyl]-ethyl}-phenyl) ester], the half-maximal inhibitory concentration (IC50) in test [1] (setting [3]) came to 6 µM; in test [2] (IC50, SRC SH2 Binding), 1 µM. As for `CC(=O)N[C@@H](Cc1ccc(OP(=O)(O)O)cc1)C(=O)NC(C)c1ccc(OCc2cc(C)cc(C)c2)c(C(N)=O)c1` (mixture of isomers) [Example 68, Phosphoric acid mono-[4-((S)-2-acetylamino-2-{(RS)-1-[3-carbamoyl-4-(3,5-dimethyl-benzyloxy)-phenyl]-ethylcarbamoyl}-ethyl)-phenyl] ester], the concentration for half-maximal inhibition (IC50) in test [1] (setting [3]) is 5.7 µM; in test [2] (IC50, SRC SH2 Binding), 1.1 µM. For `CCCC(NC(=O)[C@H](Cc1ccc(OP(=O)(O)O)cc1)NC(C)=O)c1ccc(OCC2CCCCC2)c(C(N)=O)c1` (mixture of isomers) [Example 69, Phosphoric acid mono-(4-{(S)-2-acetylamino-2-[(RS)-1-(3-carbamoyl-4-cyclohexylmethoxy-phenyl)-butylcarbamoyl]-ethyl}-phenyl) ester], the concentration for half-maximal inhibition (IC50) in test [1] (setting [3]) worked out at 7.4 µM; in test [2] (IC50, SRC SH2 Binding) it was 2.1 µM. With `CC(=O)N[C@@H](Cc1ccc(P(=O)(O)O)cc1)C(=O)NC(C)c1ccc(OCC2CCCCC2)c(C(N)=O)c1` (mixture of isomers) [Example 73, (4-{(S)-2-Acetylamino-2-[(RS)-1-(3-carbamoyl-4-cyclohexylmethoxy-phenyl)-ethylcarbamoyl]-ethyl}-phenyl)-phosphonic acid], the concentration for half-maximal inhibition (IC50) was 26 µM in test [1] (setting [4]) and 8.6 µM in test [2] (setting [5]). Regarding `CC(NC(=O)Nc1cccc2cc(OP(=O)(O)O)ccc12)c1ccc(OCC2CCCCC2)c(C(N)=O)c1` (racemic) [Example 75, (+/-)-Phosphoric acid mono-(5-{3-[1-(3-carbamoyl-4-cyclohexylmethoxy-phenyl)-ethyl]-ureido}-naphthalen-2-yl) ester], the concentration for half-maximal inhibition (IC50) is about 60 µM in test [1] (setting [3]) and 7.2 µM in test [2] (IC50, SRC SH2 Binding). As for `CC(=O)N[C@@H](Cc1ccc(C(F)(F)P(=O)(O)O)cc1)C(=O)NC(C)c1ccc(OCC2CCCCC2)c(C(N)=O)c1` (single isomer, unassigned) [Example 63b, [S-(R*,R*)]- or [S-(R*,S*)]-[(4-{2-Acetylamino-2-[1-(3-carbamoyl-4-cyclohexylmethoxy-phenyl)-ethylcarbamoyl]-ethyl}-phenyl)-difluoro-methyl]-phosphonic acid], the IC50 worked out at 59 µM in test [1] (setting [4]) and 29 µM in test [2] (setting [5]). Consider `CC(=O)N[C@@H](Cc1ccc(OP(=O)(O)O)cc1)C(=O)NC(C)c1ccc(OC(C)CC2CCCCC2)c(C(N)=O)c1` (single isomer, unassigned) [Example 64a, Phosphoric acid mono-[4-(2-acetylamino-2-{1-[3-carbamoyl-4-(2-cyclohexyl-1-methyl-ethoxy)-phenyl]-ethylcarbamoyl]-ethyl)-phenyl] ester], for which the IC50 in test [1] (setting [3]) turned out to be 2.4 µM; in test [2] (IC50, SRC SH2 Binding), 0.6 µM. With `CC(=O)N[C@@H](Cc1ccc(OP(=O)(O)O)cc1)C(=O)NC(C)c1ccc(OC(C)CC2CCCCC2)c(C(N)=O)c1` (single isomer, unassigned) [Example 64b, Phosphoric acid mono-[4-(2-acetylamino-2-{1-[3-carbamoyl-4-(2-cyclohexyl-1-methyl-ethoxy)-phenyl]-ethylcarbamoyl}-ethyl)-phenyl] ester], the half-inhibitory concentration (IC50) in test [1] (setting [3]) amounted to 14 µM; in test [2] (IC50, SRC SH2 Binding) it was 11 µM.

On to `CC(=O)N[C@@H](Cc1ccc(OP(=O)(O)O)cc1)C(=O)N[C@@H](CCC(=O)O)C(=O)N1CCC[C@@H]1CCc1ccccc1` [Example 11, 4-[(S)-2-Acetylamino-3-(4-phosphonooxy-phenyl)-(S)-propionylamino]-5-oxo-5-((S)-2-phenethyl-pyrrolidin-1-yl)-pentanoic acid], for which the IC50 in test [1] (setting [4]) was 17 µM; in test [2] (setting [5]), 2.1 µM. For `CN(CCCC1CCCCC1)C(=O)[C@H](CCC(=O)O)NC(=O)N(CC(=O)O)Cc1ccc(OP(=O)(O)O)cc1` [Example 35, (S)-4-[3-carboxymethyl-3-(4-phosphonooxy-benzyl)-ureido]-4-[(3-cyclohexyl-propyl)-methyl-carbamoyl]-butyric acid], the IC50 in test [1] (read-out: IC50, Abl SH2 Binding; competitive 125I-phosphopeptide displacement, GST-Abl SH2 fusion protein, pH 7.5, room temperature, 20 minutes) was over 100 µM. Regarding `CC(C)CCCOc1ccc(CNC(=O)c2ccc(OP(=O)(O)O)cc2)cc1C(N)=O` [Example 42, Phosphoric acid mono-{4-[3-carbamoyl-4-(4-methyl-pentyloxy)-benzylcarbamoyl]-phenyl} ester], in test [2] (IC50, SRC SH2 Binding), the IC50 was about 30 µM. `CCC(C)CCCOc1ccc(CNC(=O)c2ccc(OP(=O)(O)O)cc2)cc1C(N)=O` (stereo not drawn) [Example 43, Phosphoric acid mono-{4-[3-carbamoyl-4-(4-methyl-hexyloxy) -benzylcarbamoyl]-phenyl} ester] registered an IC50 in test [2] (IC50, SRC SH2 Binding) of about 20 µM. Turning to `NC(=O)c1cc(CNC(=O)c2ccc(OP(=O)(O)O)cc2)ccc1OCC1CCCCC1` [Example 44, Phosphoric acid mono-[4-(3-carbamoyl-4-cyclohexyl-methoxy-benzylcarbamoyl)-phenyl] ester], the half-inhibitory concentration (IC50) in test [2] (setting [5]) amounted to 6.5 µM.

On to `NC(=O)c1cc(CNC(=O)c2ccc(C(F)(F)P(=O)(O)O)cc2)ccc1OCC1CCCCC1` [Example 45, [4-(3-Carbamoyl-4-cyclohexylmethoxy-benzylcarbamoyl)-phenyl]-difluoro-methyl-phosphonic acid], for which, in test [2] (setting [5]), the half-inhibitory concentration (IC50) was about 50 µM. In test [2] (IC50, SRC SH2 Binding), `Cc1cc(C(=O)NCc2ccc(OCC3CCCCC3)c(C(N)=O)c2)cc(C)c1OP(=O)(O)O` [Example 46, Phosphoric acid mono-[4-(3-carbamoyl-4-cyclohexyl-methoxy-benzylcarbamoyl)-2,6-dimethyl-phenyl] ester] had an IC50 of 12.5 µM. `NC(=O)c1cc(CNC(=O)c2ccc(OP(=O)(O)O)c(Cl)c2)ccc1OCC1CCCCC1` [Example 47, Phosphoric acid mono-[4-(3-carbamoyl-4-cyclohexyl-methoxy-benzylcarbamoyl)-2-chloro-phenyl] ester] registered a concentration for half-maximal inhibition (IC50) in test [2] (IC50, SRC SH2 Binding) of about 20 µM. As for `CNC(=O)c1cc(CNC(=O)c2ccc(OP(=O)(O)O)cc2)ccc1OCC1CCCCC1` [Example 48, Phosphoric acid mono-[4-(4-cyclohexylmethoxy-3-methylcarbamoyl-benzylcarbamoyl)-phenyl] ester], the concentration for half-maximal inhibition (IC50) in test [2] (IC50, SRC SH2 Binding) was about 30 µM.

As to `CC(=O)N[C@@H](Cc1ccc(OP(=O)(O)O)cc1)C(=O)NCc1ccc(OCC2CCCCC2)c(C(N)=O)c1` [Example 49, (S)-Phosphoric acid mono-{4-[2-acetylamino-2-(3-carbamoyl-4-cyclohexylmethoxy-benzylcarbamoyl)-ethyl]-phenyl} ester], in test [2] (IC50, SRC SH2 Binding), the IC50 turned out to be 8.5 µM. On the same count and under the same terms, to `CC(=O)N[C@@H](Cc1ccc(OP(=O)(O)O)cc1)C(=O)NCc1ccc(OCc2cc(C)cc(C)c2)c(C(N)=O)c1` [Example 50, (S)-Phosphoric acid mono-(4-{2-acetylamino-2-[3-carbamoyl-4-(3,5-dimethyl-benzyloxy)-benzylcarbamoyl]-ethyl}-phenyl) ester] belongs 2.5 µM. The same measure, in the same setting: under `CNC(=O)N[C@@H](Cc1ccc(OP(=O)(O)O)cc1)C(=O)NCc1ccc(OCC2CCCCC2)c(C(N)=O)c1` [Example 52] stands 6.2 µM; under `CC(=O)N[C@@H](Cc1ccc(C(F)(F)P(=O)(O)O)cc1)C(=O)NCc1ccc(OCC2CCCCC2)c(C(N)=O)c1` [Example 53, (S)-{4-[2-Acetylamino-2-(3-carbamoyl-4-cyclohexyl-methoxy-benzylcarbamoyl)-ethyl]-phenyl}-difluoro-methyl-phosphonic acid], 12.1 µM. For the compound `CC(=O)N[C@@H](Cc1ccc(OP(=O)(O)O)cc1)C(=O)N[C@@H](CCC(=O)O)C(=O)NCCC12CC3CC(CC(C3)C1)C2` [Example 56, [S-(R*,R*)]-4-[2-Acetylamino-3-(4-phosphonooxy-phenyl)-propionylamino]-4-(2-adamantan-1-yl-ethylcarbamoyl)-butyric acid], the IC50 in test [2] (IC50, SRC SH2 Binding) was determined as 3.8 µM. In test [2] (IC50, SRC SH2 Binding), `CC(=O)N[C@@H](Cc1ccc(OP(=O)(O)O)cc1)C(=O)NCc1ccc(OCC2CCCCC2)c(C(=O)NN)c1` [Example 71, (S)-Phosphoric acid mono-{4-[2-acetylamino-2-(4-cyclohexylmethoxy-3-hydrazinocarbonyl-benzylcarbamoyl)-ethyl]-phenyl} ester] yielded an IC50 of 18 µM.
